Source: PubChem BioAssay (NCI)
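Each compound was tested at five concentrations against cells in 96-well plates for 48 hours. At the TGI there is no net growth.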

Tests used:
Experiment in all cases: DTP human tumour cell line panel, 48 h
[1] = test system: 786-0 renal
[2] = test system: A498 renal
[3] = test system: A549 NSCLC
[4] = test system: ACHN renal
[5] = test system: BT-549 breast
[6] = test system: CAKI-1 renal
[7] = test system: CCRF-CEM leukemia
[8] = test system: COLO 205 colon
[9] = test system: DU-145 prostate
[10] = test system: EKVX NSCLC
[11] = test system: HCC-2998 colon
[12] = test system: HCT-116 colon
[13] = test system: HCT-15 colon
[14] = test system: HL-60(TB) leukemia
[15] = test system: HOP-62 NSCLC
[16] = test system: HOP-92 NSCLC
[17] = test system: HS 578T breast
[18] = test system: HT29 colon
[19] = test system: IGROV1 ovarian
[20] = test system: K-562 leukemia
[21] = test system: KM12 colon
[22] = test system: LOX IMVI melanoma
[23] = test system: M14 melanoma
[24] = test system: MALME-3M melanoma
[25] = test system: MCF7 breast
[26] = test system: MDA-MB-231 breast
[27] = test system: MDA-N
[28] = test system: MOLT-4 leukemia
[29] = test system: NCI-H226 lung
[30] = test system: NCI-H23 lung
[31] = test system: NCI-H460 lung
[32] = test system: NCI-H522 lung
[33] = test system: NCI/ADR-RES ovarian
[34] = test system: OVCAR-3 ovarian
[35] = test system: OVCAR-4 ovarian
[36] = test system: OVCAR-5 ovarian
[37] = test system: OVCAR-8 ovarian
[38] = test system: PC-3 prostate
[39] = test system: RPMI-8226 leukemia
[40] = test system: RXF 393 renal
[41] = test system: SF-268 CNS
[42] = test system: SF-295 CNS
[43] = test system: SF-539 CNS
[44] = test system: SK-MEL-2 melanoma
[45] = test system: SK-MEL-28 melanoma
[46] = test system: SK-MEL-5 melanoma
[47] = test system: SK-OV-3 ovarian
[48] = test system: SN12C renal
[49] = test system: SNB-19 CNS
[50] = test system: SNB-75 CNS
[51] = test system: SR leukemia
[52] = test system: T-47D breast
[53] = test system: TK-10 renal
[54] = test system: U251 CNS
[55] = test system: UACC-257 melanoma
[56] = test system: UACC-62 melanoma
[57] = test system: UO-31 renal

Question: How did the TGI [1] turn out when `Cc1ccc(/C=C/C(=O)c2c([O-])on[n+]2-c2ccccc2)cc1` was run?
Answer: 3.78 µM

Question: And the TGI [2]?
Answer: 17.9 µM

Question: What about the TGI [3] of the same compound?
Answer: 25 µM

Question: And the TGI [4]?
Answer: 3.55 µM

Question: And the TGI [5]?
Answer: 6.09 µM

Question: What about the TGI [6] of the same compound?
Answer: 3.87 µM

Question: And the TGI [7]?
Answer: > 100 µM

Question: And the TGI [8]?
Answer: 7.35 µM

Question: What about the TGI [9] of the same compound?
Answer: 8.41 µM

Question: What about the TGI [10] of the same compound?
Answer: 14.6 µM

Question: What about the TGI [11] of the same compound?
Answer: 4.15 µM

Question: What about the TGI [12] of the same compound?
Answer: 3.65 µM

Question: What about the TGI [13] of the same compound?
Answer: 4.68 µM

Question: What about the TGI [14] of the same compound?
Answer: 6.55 µM

Question: What about the TGI [15] of the same compound?
Answer: 24.9 µM

Question: And the TGI [16]?
Answer: 16.8 µM

Question: What about the TGI [17] of the same compound?
Answer: > 25.8 µM

Question: And the TGI [18]?
Answer: 3.84 µM

Question: What about the TGI [19] of the same compound?
Answer: 8.67 µM

Question: What about the TGI [20] of the same compound?
Answer: > 100 µM

Question: What about the TGI [21] of the same compound?
Answer: 7.69 µM

Question: And the TGI [22]?
Answer: 3.74 µM

Question: What about the TGI [23] of the same compound?
Answer: 5.98 µM

Question: And the TGI [24]?
Answer: 98.3 µM

Question: What about the TGI [25] of the same compound?
Answer: 19 µM

Question: What about the TGI [26] of the same compound?
Answer: > 75.2 µM

Question: And the TGI [27]?
Answer: > 26.3 µM

Question: And the TGI [28]?
Answer: 6.64 µM

Question: What about the TGI [29] of the same compound?
Answer: > 45.6 µM

Question: And the TGI [30]?
Answer: 17.5 µM

Question: What about the TGI [31] of the same compound?
Answer: 6.38 µM

Question: What about the TGI [32] of the same compound?
Answer: 8.06 µM

Question: What about the TGI [33] of the same compound?
Answer: 7.11 µM

Question: And the TGI [34]?
Answer: 6.92 µM

Question: What about the TGI [35] of the same compound?
Answer: > 21.1 µM

Question: And the TGI [36]?
Answer: 15.5 µM

Question: And the TGI [37]?
Answer: 4.05 µM

Question: And the TGI [38]?
Answer: 17.2 µM

Question: What about the TGI [39] of the same compound?
Answer: 6.35 µM

Question: What about the TGI [40] of the same compound?
Answer: 3.65 µM

Question: What about the TGI [41] of the same compound?
Answer: > 37.5 µM

Question: And the TGI [42]?
Answer: > 46.4 µM

Question: And the TGI [43]?
Answer: 12.7 µM

Question: What about the TGI [44] of the same compound?
Answer: 5.39 µM

Question: What about the TGI [45] of the same compound?
Answer: 5.75 µM

Question: And the TGI [46]?
Answer: > 32.5 µM

Question: What about the TGI [47] of the same compound?
Answer: > 100 µM

Question: What about the TGI [48] of the same compound?
Answer: 31.3 µM

Question: What about the TGI [49] of the same compound?
Answer: > 33.5 µM

Question: What about the TGI [50] of the same compound?
Answer: 4.87 µM

Question: And the TGI [51]?
Answer: > 27.5 µM

Question: What about the TGI [52] of the same compound?
Answer: 9.49 µM

Question: And the TGI [53]?
Answer: 10.3 µM

Question: And the TGI [54]?
Answer: 10.7 µM

Question: And the TGI [55]?
Answer: 16 µM

Question: What about the TGI [56] of the same compound?
Answer: 3.12 µM

Question: What about the TGI [57] of the same compound?
Answer: 6.24 µM
